Reference: patent US11679114B2, “Progestogen-only oral contraception” (Navad Life Sciences Pte, priority 2021, dated 2023)
Like-named read-outs stand apart in the source and are kept apart here.

Key:
[1] = Multiple-dose pharmacokinetics, plasma LNG concentrations on treatment day 55 (±1); type: in vivo, human; conditions: for AUC(0-t) / Cmax: female, human, plasma, po
Protocol: (§1) Serum SHBG concentrations were determined after ovulation in the pre-treatment cycle, on treatment day 55 (±1) and at the end-of-study examination. Multiple-dose PK parameters were investigated in approximately 15 subjects per dose group, 5 of them having a BMI≥30 kg/m^2. Blood samples for LNG determination were taken on treatment day 55 (±1) pre-dose and 0.5, 1, 2, 3, 4, 6 and 24 hours after dosing.
Plasma LNG concentrations were determined by a validated liquid chromatography hyphenated with tandem mass spectrometry method (ACC, Leidersbach, Germany). PK parameters were derived by means of non-compartmental analysis. Analysis of Variance (ANOVA) was used as basis for the calculation of 90% confidence intervals; point estimates and confidence intervals for area under the curve (AUC) and maximum concentration (Cmax) values and comparison of treatments which were calculated by parametric analysis. Descriptive statistics for each treatment group and for subgroups with BMI<30 and ≥30 kg/m^2 were calculated.

healthy, cyclic women = test: Serum SHBG concentrations; type: in vivo, human
Protocol: as §1
If ovulation was observed during treatment, the subsequent luteal phase was evaluated using the Landgren criterion, i.e. the luteal phase was considered adequate when P concentrations were >16 nmol/L during at least 5 days (Landgren et al., “Hormonal effects of the 300 μg norethisterone (NET) minipill. 1. Daily steroid levels in 43 subjects during a pretreatment cycle and during the second month of NET administration,” Contraception 1980; 21: pp. 87-113). TVUS measurements of the diameter of the largest FLS (mean of two directions) were performed using a Voluson E8 Expert device (GE Medical Systems). Serum FSH, LH, E2, P and SHBG concentrations were determined by validated chemiluminescent microparticle immunoassays (Abbott, Longford, Ireland). All pharmacodynamic parameters were evaluated descriptively.

[2] = 0.135 mg per day oral over 55 ± 1 consecutive days, entire treatment group
[3] = LNG 0.095 mg per day, end of study (on average 22 days after last treatment)
[4] = LNG 0.095 mg per day, treatment day 55 ± 1
[5] = LNG 0.115 mg per day, end of study (on average 22 days after last treatment)
[6] = LNG 0.115 mg per day, treatment day 55 ± 1
[7] = LNG 0.135 mg per day, end of study (on average 22 days after last treatment)
[8] = LNG 0.135 mg per day, treatment day 55 ± 1

Cmax, ss, Max [1, 2]: 3.23 ng/mL
Cmax, ss, Min [1, 2]: 1.14 ng/mL
Dose proportionality of total exposure over the dosing interval ([1]; 0.095, 0.115 and 0.135 mg per day, day 55±1): dose proportionality
AUC(0-t) ([1]; 0.095 mg per day, 0.095 mg per day oral over 55 ± 1 consecutive days, entire treatment group, read-out: AUC0-24, ss, Geometric Mean): 12.4 ng·h/mL
AUC(0-t) ([1]; 0.095 mg per day, 0.095 mg per day oral over 55 ± 1 consecutive days, entire treatment group, read-out: AUC0-24, ss, Mean): 13.1 ng·h/mL
AUC(0-t) ([1]; 0.095 mg per day, 0.095 mg per day oral over 55 ± 1 consecutive days, entire treatment group, read-out: AUC0-24, ss, Median): 11.8 ng·h/mL
Cmax ([1]; 0.095 mg per day, 0.095 mg per day oral over 55 ± 1 consecutive days, entire treatment group, read-out: Cmax, ss, Geometric Mean): 1.55 ng/mL
Cmax ([1]; 0.095 mg per day, 0.095 mg per day oral over 55 ± 1 consecutive days, entire treatment group, read-out: Cmax, ss, Mean): 1.65 ng/mL
Cmax ([1]; 0.095 mg per day, 0.095 mg per day oral over 55 ± 1 consecutive days, entire treatment group, read-out: Cmax, ss, Median): 1.63 ng/mL
AUC(0-t) ([1]; 0.095 mg per day, 0.095 mg per day oral over 55 ± 1 consecutive days, subgroup BMI < 30 kg/m2, read-out: AUC0-24, ss, Geometric mean): 14 ng·h/mL
Cmax ([1]; 0.095 mg per day, 0.095 mg per day oral over 55 ± 1 consecutive days, subgroup BMI < 30 kg/m2, read-out: Cmax, ss, Geometric mean): 1.83 ng/mL
AUC(0-t) ([1]; 0.095 mg per day, 0.095 mg per day oral over 55 ± 1 consecutive days, subgroup BMI ≥ 30 kg/m^2, read-out: AUC0-24, ss, Geometric mean): 9.2 ng·h/mL
Cmax ([1]; 0.095 mg per day, 0.095 mg per day oral over 55 ± 1 consecutive days, subgroup BMI ≥ 30 kg/m^2, read-out: Cmax, ss, Geometric mean): 1.05 ng/mL
AUC(0-t) ([1]; 0.115 mg per day, 0.115 mg per day oral over 55 ± 1 consecutive days, entire treatment group, read-out: AUC0-24, ss, Geometric Mean): 13.8 ng·h/mL
AUC(0-t) ([1]; 0.115 mg per day, 0.115 mg per day oral over 55 ± 1 consecutive days, entire treatment group, read-out: AUC0-24, ss, Mean): 14.8 ng·h/mL
AUC(0-t) ([1]; 0.115 mg per day, 0.115 mg per day oral over 55 ± 1 consecutive days, entire treatment group, read-out: AUC0-24, ss, Median): 12.9 ng·h/mL
Cmax ([1]; 0.115 mg per day, 0.115 mg per day oral over 55 ± 1 consecutive days, entire treatment group, read-out: Cmax, ss, Geometric Mean): 1.67 ng/mL
Cmax ([1]; 0.115 mg per day, 0.115 mg per day oral over 55 ± 1 consecutive days, entire treatment group, read-out: Cmax, ss, Mean): 1.79 ng/mL
Cmax ([1]; 0.115 mg per day, 0.115 mg per day oral over 55 ± 1 consecutive days, entire treatment group, read-out: Cmax, ss, Median): 1.81 ng/mL
AUC(0-t) ([1]; 0.115 mg per day, 0.115 mg per day oral over 55 ± 1 consecutive days, subgroup BMI < 30 kg/m2, read-out: AUC0-24, ss, Geometric mean): 16.3 ng·h/mL
Cmax ([1]; 0.115 mg per day, 0.115 mg per day oral over 55 ± 1 consecutive days, subgroup BMI < 30 kg/m2, read-out: Cmax, ss, Geometric mean): 2.03 ng/mL
AUC(0-t) ([1]; 0.115 mg per day, 0.115 mg per day oral over 55 ± 1 consecutive days, subgroup BMI ≥ 30 kg/m^2, read-out: AUC0-24, ss, Geometric mean): 9.32 ng·h/mL
Cmax ([1]; 0.115 mg per day, 0.115 mg per day oral over 55 ± 1 consecutive days, subgroup BMI ≥ 30 kg/m^2, read-out: Cmax, ss, Geometric mean): 1.05 ng/mL
AUC(0-t) ([1]; 0.135 mg per day, 0.135 mg per day oral over 55 ± 1 consecutive days, entire treatment group, read-out: AUC0-24, ss, Geometric Mean): 16.8 ng·h/mL
AUC(0-t) ([1]; 0.135 mg per day, 0.135 mg per day oral over 55 ± 1 consecutive days, entire treatment group, read-out: AUC0-24, ss, Mean): 17.5 ng·h/mL
AUC(0-t) ([1]; 0.135 mg per day, 0.135 mg per day oral over 55 ± 1 consecutive days, entire treatment group, read-out: AUC0-24, ss, Median): 16.9 ng·h/mL
Cmax ([1]; 0.135 mg per day, 0.135 mg per day oral over 55 ± 1 consecutive days, entire treatment group, read-out: Cmax, ss, Geometric Mean): 1.92 ng/mL
Cmax ([1]; 0.135 mg per day, 0.135 mg per day oral over 55 ± 1 consecutive days, entire treatment group, read-out: Cmax, ss, Mean): 2.01 ng/mL
Cmax ([1]; 0.135 mg per day, 0.135 mg per day oral over 55 ± 1 consecutive days, entire treatment group, read-out: Cmax, ss, Median): 1.93 ng/mL
AUC(0-t) ([1]; 0.135 mg per day, 0.135 mg per day oral over 55 ± 1 consecutive days, subgroup BMI < 30 kg/m2, read-out: AUC0-24, ss, Geometric mean): 17.6 ng·h/mL
Cmax ([1]; 0.135 mg per day, 0.135 mg per day oral over 55 ± 1 consecutive days, subgroup BMI < 30 kg/m2, read-out: Cmax, ss, Geometric mean): 2.14 ng/mL
AUC(0-t) ([1]; 0.135 mg per day, 0.135 mg per day oral over 55 ± 1 consecutive days, subgroup BMI ≥ 30 kg/m^2, read-out: AUC0-24, ss, Geometric mean): 15.3 ng·h/mL
Cmax ([1]; 0.135 mg per day, 0.135 mg per day oral over 55 ± 1 consecutive days, subgroup BMI ≥ 30 kg/m^2, read-out: Cmax, ss, Geometric mean): 1.52 ng/mL
Time at which maximum plasma LNG values were reached after dosing ([1]; study drug administration on day 55±1, all dosages): 1 h
Structure (SMILES): C#C[C@]1(O)CC[C@H]2[C@@H]3CCC4=CC(=O)CC[C@@H]4[C@H]3CC[C@@]21CC (racemic) [LNG, levonorgestrel]
SHBG, Mean ± SD (healthy, cyclic women; [3]): 49.9 ± 17.4 nmol/L
SHBG, Median (healthy, cyclic women; [3]): 47.7 nmol/L
SHBG, Mean ± SD (healthy, cyclic women; [4]): 27.7 ± 10.6 nmol/L
SHBG, Median (healthy, cyclic women; [4]): 25.5 nmol/L
SHBG, Mean ± SD (healthy, cyclic women; [5]): 48.1 ± 20.1 nmol/L
SHBG, Median (healthy, cyclic women; [5]): 46.7 nmol/L
SHBG, Mean ± SD (healthy, cyclic women; [6]): 23.9 ± 12.1 nmol/L
SHBG, Median (healthy, cyclic women; [6]): 18.9 nmol/L
SHBG, Mean ± SD (healthy, cyclic women; [7]): 58.6 ± 28.5 nmol/L
SHBG, Median (healthy, cyclic women; [7]): 47.8 nmol/L
SHBG, Mean ± SD (healthy, cyclic women; [8]): 24.0 ± 9.5 nmol/L
SHBG, Median (healthy, cyclic women; [8]): 23.7 nmol/L
Suppression of SHBG concentrations (healthy, cyclic women; all treatment groups, end of treatment period 2): approximately 60%
